The source of these data is patent US20230233569A1 (Revolution Medicines, Inc., priority 2020, published 2023).

SMILES strings stand for the structures. A value given as a limit tells only on which side of the number the result lay.

The test system of assay [1] is AKT1/2/3 (Ser473) phosphorylation (mTORC2) in MDA-MB-468 cells. As to the kind of experiment: Cell based AlphaLISA assay, mTOR kinase cellular assay: inhibition of p-Akt (S473) in MDA-MB-468 cells. The following applies: Homo sapiens, read-out: pIC50 for Inhibition of mTORC1 and mTORC2 Substarte Phosphorylation p-AKT1/2/3-(S473) (converted). The protocol: (§1) Cell Based AlphaLISA Assays for Determining IC50 For Inhibition of P-Akt (S473), P-4E-BP1 (T37/46), and P-P70S6K (T389) in MDA-MB-468 Cells
(§2) mTOR Kinase Cellular Assay
(§3) To measure functional activity of mTORC1 and mTORC2 in cells the phosphorylation of 4EBP1 (Thr37/46) and P70S6K (Thr389), and AKT1/2/3 (Ser473) was monitored using AlphaLisa SureFire Ultra Kits (Perkin Elmer). MDA-MB-468 cells (ATCC® HTB-132) were cultured in 96-well tissue culture plates and treated with compounds in the disclosure at concentrations varying from 0.017-1,000 nM for two to four hours at 37° C. Incubations were terminated by removal of the assay buffer and addition of lysis buffer provided with the assay kit. Samples were processed according to the manufacturer's instructions. The Alpha signal from the respective phosphoproteins was measured in duplicate using a microplate reader (Envision, Perkin-Elmer or Spectramax M5, Molecular Devices). Inhibitor concentration response curves were analyzed using normalized IC50 regression curve fitting with control based normalization.

The subject of assay [2] is 4EBP1 (Thr37/46) phosphorylation (mTORC1) in MDA-MB-468 cells. As to the kind of experiment: Cell based AlphaLISA assay, mTOR kinase cellular assay: inhibition of p-4E-BP1 (T37/46) in MDA-MB-468 cells. Conditions: Homo sapiens, read-out: pIC50 for Inhibition of mTORC1 and mTORC2 Substarte Phosphorylation p-4E-BP1-(T37/46) (converted). The protocol: as §1, §2, §3

Turning to `CO[C@H]1C[C@@H]2CC[C@@H](C)[C@@](O)(O2)C(=O)C(=O)N2CCCC[C@H]2C(=O)O[C@H]([C@H](C)C[C@@H]2CC[C@@H](OC(=O)NCc3cnc(N4CCN(C(=O)CCOCCN5CCN(c6ncc(C(=O)NCCCCn7nc(-c8ccc9oc(N)nc9c8)c8c(N)ncnc87)cn6)CC5)CC4)nc3)[C@H](OC)C2)CC(=O)[C@H](C)/C=C(\C)[C@@H](O)[C@@H](OC)C(=O)[C@H](C)C[C@H](C)/C=C/C=C/C=C/1C` [Example 54], the IC50 in assay [1] and in assay [2] was at most 3.16 nM each time.

`CO[C@H]1C[C@@H]2CC[C@@H](C)[C@@](O)(O2)C(=O)C(=O)N2CCCC[C@H]2C(=O)O[C@H]([C@H](C)C[C@@H]2CC[C@@H](OC(=O)NCc3cnc(N4CCN(c5ncc(C(=O)N6CCN(c7ncc(C(=O)N8CCc9cc(Cn%10nc(-c%11ccc%12oc(N)nc%12c%11)c%11c(N)ncnc%11%10)ccc9C8)cn7)CC6)cn5)CC4)nc3)[C@H](OC)C2)CC(=O)[C@H](C)/C=C(\C)[C@@H](O)[C@@H](OC)C(=O)[C@H](C)C[C@H](C)/C=C/C=C/C=C/1C` [Example 60]: the IC50 in assay [2] was 3.16 to 31.6 nM.

On to `CO[C@H]1C[C@@H]2CC[C@@H](C)[C@@](O)(O2)C(=O)C(=O)N2CCCC[C@H]2C(=O)O[C@H]([C@H](C)C[C@@H]2CC[C@@H](OC(=O)NCCOCCOCCOCCOCCOCCOCCOCCOCCC(=O)NCc3ccc(Cn4nc(-c5ccc6oc(N)nc6c5)c5c(N)ncnc54)cc3)[C@H](OC)C2)C[C@H](N=[N+]=[N-])[C@H](C)/C=C(\C)[C@@H](O)[C@@H](OC)C(=O)[C@H](C)C[C@H](C)/C=C/C=C/C=C/1C` [Example 82], for which the IC50 in assay [2] was at most 3.16 nM.

For `CO[C@H]1C[C@@H]2CC[C@@H](C)[C@@](O)(O2)C(=O)C(=O)N2CCCC[C@H]2C(=O)O[C@H]([C@H](C)C[C@@H]2CC[C@@H](OC(=O)NCc3cnc(N4CCN(C(=O)CN(C)CC(=O)NCCOCCOCCC(=O)N5CCc6cc(Cn7nc(-c8ccc9oc(N)nc9c8)c8c(N)ncnc87)ccc6C5)CC4)nc3)[C@H](OC)C2)C[C@@H](OC)[C@H](C)/C=C(\C)[C@@H](O)[C@@H](OC)C(=O)[C@H](C)C[C@H](C)/C=C/C=C/C=C/1C` [Example 103], the IC50 in assay [1] and in assay [2] was over 1000 nM each time.

As for `CO[C@H]1C[C@@H]2CC[C@@H](C)[C@@](O)(O2)C(=O)C(=O)N2CCCC[C@H]2C(=O)O[C@H]([C@H](C)C[C@@H]2CC[C@@H](OC(=O)NCc3cnc(N4CCN(c5ncc(C(=O)NCCOCCOCCOCCOCCC(=O)N6CCc7cc(Cn8nc(-c9ccc%10oc(N)nc%10c9)c9c(N)ncnc98)ccc7C6)c(N)n5)CC4)nc3)[C@H](OC)C2)C[C@@H](OC)[C@H](C)/C=C(\C)[C@@H](O)[C@@H](OC)C(=O)[C@H](C)C[C@H](C)/C=C/C=C/C=C/1C` [Example 106], the IC50 in assay [1] is over 1000 nM; in assay [2], 3.16 to 31.6 nM.

With `CO[C@H]1C[C@@H]2CC[C@@H](C)[C@@](O)(O2)C(=O)C(=O)N2CCCC[C@H]2C(=O)O[C@H]([C@H](C)C[C@@H]2CC[C@@H](OC(=O)NCc3cnc(N4CCN(c5ncc(C(=O)N(C)CCOCCOCCOCCOCCC(=O)N6CCc7cc(Cn8nc(-c9ccc%10oc(N)nc%10c9)c9c(N)ncnc98)ccc7C6)c(N)n5)CC4)nc3)[C@H](OC)C2)C[C@@H](OC)[C@H](C)/C=C(\C)[C@@H](O)[C@@H](OC)C(=O)[C@H](C)C[C@H](C)/C=C/C=C/C=C/1C` [Example 107], the IC50 in assay [1] and in assay [2] was over 1000 nM in each case.

Take `CO[C@H]1C[C@@H]2CC[C@@H](C)[C@@](O)(O2)C(=O)C(=O)N2CCCC[C@H]2C(=O)O[C@H]([C@H](C)C[C@@H]2CC[C@@H](OC(=O)NCc3cnc(N4CCN(CCOCCN5CCN(c6ncc(C(=O)N7CCc8cc(Cn9nc(-c%10ccc%11oc(N)nc%11c%10)c%10c(N)ncnc%109)ccc8C7)cn6)CC5)CC4)nc3)[C@H](OC)C2)C[C@@H](OC)[C@H](C)/C=C(\C)[C@@H](O)[C@@H](OC)C(=O)[C@H](C)C[C@H](C)/C=C/C=C/C=C/1C` [Example 125]: in assay [2], the IC50 is at most 3.16 nM.

Regarding `CO[C@H]1C[C@@H]2CC[C@@H](C)[C@@](O)(O2)C(=O)C(=O)N2CCCC[C@H]2C(=O)O[C@H]([C@H](C)C[C@@H]2CC[C@@H](OC(=O)N3CCc4nc(N5CCN(CCOCCN6CCN(c7ncc(C(=O)N8CCc9cc(Cn%10nc(-c%11ccc%12oc(N)nc%12c%11)c%11c(N)ncnc%11%10)ccc9C8)cn7)CC6)CC5)ncc4C3)[C@H](OC)C2)C[C@@H](OC)[C@H](C)/C=C(\C)[C@@H](O)[C@@H](OC)C(=O)[C@H](C)C[C@H](C)/C=C/C=C/C=C/1C` [Example 126], the IC50 in assay [2] is 3.16 to 31.6 nM.

Regarding `CO[C@H]1C[C@@H]2CC[C@@H](C)[C@@](O)(O2)C(=O)C(=O)N2CCCC[C@H]2C(=O)O[C@H]([C@H](C)C[C@@H]2CC[C@@H](OC(=O)NCc3cnc(N4CCN(C(=O)CCOCCN5CCN(C(=O)CCC(=O)N6CCc7cc(Cn8nc(-c9ccc%10oc(N)nc%10c9)c9c(N)ncnc98)ccc7C6)CC5)CC4)nc3)[C@H](OC)C2)C[C@@H](O)[C@H](C)/C=C(\C)[C@@H](O)[C@@H](OC)C(=O)[C@H](C)C[C@H](C)/C=C/C=C/C=C/1C` [Example 129], in assay [1], the IC50 is over 1000 nM.

Take `CO[C@H]1C[C@@H]2CC[C@@H](C)[C@@](O)(O2)C(=O)C(=O)N2CCCC[C@H]2C(=O)O[C@H]([C@H](C)C[C@@H]2CC[C@@H](OC(=O)NCc3cnc(N4CCN(C(=O)CCOCCN5CCN(C(=O)CCC(=O)N6CCc7cc(Cn8nc(-c9ccc%10oc(N)nc%10c9)c9c(N)ncnc98)ccc7C6)CC5)CC4)nc3)[C@H](OC)C2)C[C@@H](OC)[C@H](C)/C=C(\C)[C@@H](O)[C@@H](OC)C(=O)[C@H](C)C[C@H](C)/C=C/C=C/C=C/1C` [Example 130]: the IC50 in assay [1] was over 1000 nM.

As to `CO[C@H]1C[C@@H]2CC[C@@H](C)[C@@](O)(O2)C(=O)C(=O)N2CCCC[C@H]2C(=O)O[C@H]([C@H](C)C[C@@H]2CC[C@@H](OC(=O)NCc3cnc(N4CCN(C(=O)CCOCCN5CCN(c6ncc(C(=O)N7CCc8cc(Cn9nc(-c%10ccc%11oc(N)nc%11c%10)c%10c(N)ncnc%109)ccc8C7)cn6)CC5)[C@@H](C(=O)O)C4)nc3)[C@H](OC)C2)C[C@@H](OC)[C@H](C)/C=C(\C)[C@@H](O)[C@@H](OC)C(=O)[C@H](C)C[C@H](C)/C=C/C=C/C=C/1C` [Example 131], the IC50 in assay [1] is 3.16 to 31.6 nM.

Regarding `CO[C@H]1C[C@@H]2CC[C@@H](C)[C@@](O)(O2)C(=O)C(=O)N2CCCC[C@H]2C(=O)O[C@H]([C@H](C)C[C@@H]2CC[C@@H](OC(=O)NCc3cnc(N4CCN(C(=O)CCOCCN5CCN(c6ncc(C(=O)N7CCc8cc(Cn9nc(-c%10cnc%11[nH]ccc%11c%10)c%10c(N)ncnc%109)ccc8C7)cn6)CC5)[C@@H](C(=O)O)C4)nc3)[C@H](OC)C2)CC(=O)[C@H](C)/C=C(\C)[C@@H](O)[C@@H](OC)C(=O)[C@H](C)C[C@H](C)/C=C/C=C/C=C/1C` [Example 132], the results for the IC50 in assay [1] and in assay [2] were 3.16 to 31.6 nM and at most 3.16 nM, respectively.

As to `CO[C@H]1C[C@@H]2CC[C@@H](C)[C@@](O)(O2)C(=O)C(=O)N2CCCC[C@H]2C(=O)O[C@H]([C@H](C)C[C@@H]2CC[C@@H](O)[C@H](OC)C2)CC(=O)[C@H](C)/C=C(\C)[C@@H](OC(=O)NCc2cnc(N3CCN(C(=O)CCOCCN4CCN(c5ncc(C(=O)N6CCc7cc(Cn8nc(-c9ccc%10oc(N)nc%10c9)c9c(N)ncnc98)ccc7C6)cn5)CC4)CC3)nc2)[C@@H](OC)C(=O)[C@H](C)C[C@H](C)/C=C/C=C/C=C/1C` [Example 133], the IC50 in assay [2] was at most 3.16 nM.

Take `CO[C@H]1C[C@@H]2CC[C@@H](C)[C@@](O)(O2)C(=O)C(=O)N2CCCC[C@H]2C(=O)O[C@H]([C@H](C)C[C@@H]2CC[C@@H](OC(=O)NCCOCCOCCN3CCN(CCOCCOCCOCCOCCC(=O)N4CCc5cc(Cn6nc(-c7ccc8oc(N)nc8c7)c7c(N)ncnc76)ccc5C4)CC3)[C@H](OC)C2)C[C@@H](O)[C@H](C)/C=C(\C)[C@@H](O)[C@@H](OC)C(=O)[C@H](C)C[C@H](C)/C=C/C=C/C=C/1C` [Example 135]: the IC50 in assay [1] is over 1000 nM.

On to `CO[C@H]1C[C@@H]2CC[C@@H](C)[C@@](O)(O2)C(=O)C(=O)N2CCCC[C@H]2C(=O)O[C@H]([C@H](C)C[C@@H]2CC[C@@H](OC(=O)NCc3cnc(N4CCN(C(=O)CCOCCN5CCN(c6ncc(C(=O)N7CCc8cc(Cn9nc(-c%10ccc%11oc(N)nc%11c%10)c%10c(N)ncnc%109)ccc8C7)cn6)CC5)CC4)nc3)[C@H](OC)C2)C[C@H](N=[N+]=[N-])[C@H](C)/C=C(\C)[C@@H](O)[C@@H](OC)C(=O)[C@H](C)C[C@H](C)/C=C/C=C/C=C/1C` [Example 151], for which, in assay [1], the IC50 was over 1000 nM.

`CO[C@H]1C[C@@H]2CC[C@@H](C)[C@@](O)(O2)C(=O)C(=O)N2CCCC[C@H]2C(=O)O[C@H]([C@H](C)C[C@@H]2CC[C@@H](OC(=O)NCCOCCOCCN3C[C@@H]4C[C@H]3CN4CCOCCOCCOCCOCCC(=O)N3CCc4cc(Cn5nc(-c6ccc7oc(N)nc7c6)c6c(N)ncnc65)ccc4C3)[C@H](OC)C2)C[C@@H](O)[C@H](C)/C=C(\C)[C@@H](O)[C@@H](OC)C(=O)[C@H](C)C[C@H](C)/C=C/C=C/C=C/1C` [Example 152]: in assay [1], the IC50 was 31.6 to 1000 nM.
